Assay results taken from ChEMBL document CHEMBL4316613, “Recent developments in the synthesis and applications of phosphinic peptide analogs” (Bioorg Med Chem Lett, 2019).

How the values were obtained:
[1] = molecular target: T1, Macrophage metalloelastase (Homo sapiens, UniProt P39900); test: Inhibition of human MMP12
[2] = Inhibition of Helicobacter pylori Csd4
[3] = Inhibition of Neisseria meningitidis APN
Leucine aminopeptidase = molecular target: T2, Leucine aminopeptidase (Plasmodium falciparum 3D7, UniProt Q8IL11); test: Inhibition of Plasmodium falciparum LAP
T2 sequence (Q8IL11 whole entry): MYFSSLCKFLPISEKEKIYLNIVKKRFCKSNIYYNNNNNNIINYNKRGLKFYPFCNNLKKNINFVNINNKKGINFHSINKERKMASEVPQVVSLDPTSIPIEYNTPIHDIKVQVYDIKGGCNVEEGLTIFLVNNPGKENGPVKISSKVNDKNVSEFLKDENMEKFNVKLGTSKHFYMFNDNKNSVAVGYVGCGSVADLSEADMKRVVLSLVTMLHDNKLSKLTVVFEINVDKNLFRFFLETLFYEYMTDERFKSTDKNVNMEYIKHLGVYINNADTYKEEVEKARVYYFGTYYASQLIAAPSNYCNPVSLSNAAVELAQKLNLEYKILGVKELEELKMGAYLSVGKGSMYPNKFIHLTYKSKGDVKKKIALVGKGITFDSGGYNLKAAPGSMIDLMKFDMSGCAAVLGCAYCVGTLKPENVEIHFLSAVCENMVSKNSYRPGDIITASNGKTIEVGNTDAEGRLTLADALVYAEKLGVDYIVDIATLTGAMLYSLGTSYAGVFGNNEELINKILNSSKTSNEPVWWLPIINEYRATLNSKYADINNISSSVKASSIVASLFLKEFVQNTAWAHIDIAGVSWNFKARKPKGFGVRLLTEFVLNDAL

[4] = molecular target: T3, Leukotriene A-4 hydrolase (Homo sapiens, UniProt P09960); test: Inhibition of human recombinant LTA4H by L-(4-benzoyl)phenylalanyl-beta-naphthylamide fluorigenic substrate by fluorescence based assay
T3 sequence (P09960 whole entry): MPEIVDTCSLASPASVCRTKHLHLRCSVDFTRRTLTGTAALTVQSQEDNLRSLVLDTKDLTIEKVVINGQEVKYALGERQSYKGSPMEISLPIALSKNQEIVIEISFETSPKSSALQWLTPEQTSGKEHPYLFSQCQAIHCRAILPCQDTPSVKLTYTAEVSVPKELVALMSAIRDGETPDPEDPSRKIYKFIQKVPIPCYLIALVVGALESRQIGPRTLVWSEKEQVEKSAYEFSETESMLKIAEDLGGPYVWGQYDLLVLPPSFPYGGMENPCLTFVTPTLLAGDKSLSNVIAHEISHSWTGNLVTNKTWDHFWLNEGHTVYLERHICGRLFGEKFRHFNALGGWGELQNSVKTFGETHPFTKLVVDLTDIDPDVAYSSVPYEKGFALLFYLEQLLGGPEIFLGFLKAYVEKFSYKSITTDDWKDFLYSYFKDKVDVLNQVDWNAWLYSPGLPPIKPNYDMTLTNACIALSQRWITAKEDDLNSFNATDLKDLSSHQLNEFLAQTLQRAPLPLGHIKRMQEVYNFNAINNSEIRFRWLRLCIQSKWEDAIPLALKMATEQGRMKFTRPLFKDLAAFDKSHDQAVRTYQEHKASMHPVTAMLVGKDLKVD

Neutrophil collagenase = Neutrophil collagenase (Homo sapiens, UniProt P22894); test: Inhibition of human MMP8 by photoaffinity probe based assay
[5] = molecular target: Matrix metalloproteinase-9 (Homo sapiens, UniProt P14780); test: Inhibition of human MMP9 by photoaffinity probe based assay
[6] = molecular target: 72 kDa type IV collagenase (Homo sapiens, UniProt P08253); test: Inhibition of human MMP2 by photoaffinity probe based assay
Collagenase 3 = Collagenase 3 (Homo sapiens, UniProt P45452); test: Inhibition of human MMP13 by photoaffinity probe based assay
[7] = molecular target: T1, Macrophage metalloelastase; test: Inhibition of human MMP12 by photoaffinity probe based assay
[8] = Inhibition of Plasmodium falciparum APN

T1 sequence (P39900 whole entry): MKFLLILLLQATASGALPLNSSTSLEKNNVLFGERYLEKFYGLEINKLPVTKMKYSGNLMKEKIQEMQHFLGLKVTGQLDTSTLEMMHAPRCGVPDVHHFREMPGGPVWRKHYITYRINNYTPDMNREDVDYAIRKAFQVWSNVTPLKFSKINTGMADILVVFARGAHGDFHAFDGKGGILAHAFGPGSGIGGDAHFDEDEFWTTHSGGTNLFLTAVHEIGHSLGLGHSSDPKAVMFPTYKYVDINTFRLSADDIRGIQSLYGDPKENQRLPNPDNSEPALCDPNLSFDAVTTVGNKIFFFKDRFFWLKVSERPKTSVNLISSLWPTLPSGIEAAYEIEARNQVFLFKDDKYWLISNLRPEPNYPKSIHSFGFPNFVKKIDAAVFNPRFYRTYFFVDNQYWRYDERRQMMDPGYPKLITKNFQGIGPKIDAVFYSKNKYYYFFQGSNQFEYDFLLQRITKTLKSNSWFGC
72 kDa type IV collagenase, sequence (P08253 whole entry): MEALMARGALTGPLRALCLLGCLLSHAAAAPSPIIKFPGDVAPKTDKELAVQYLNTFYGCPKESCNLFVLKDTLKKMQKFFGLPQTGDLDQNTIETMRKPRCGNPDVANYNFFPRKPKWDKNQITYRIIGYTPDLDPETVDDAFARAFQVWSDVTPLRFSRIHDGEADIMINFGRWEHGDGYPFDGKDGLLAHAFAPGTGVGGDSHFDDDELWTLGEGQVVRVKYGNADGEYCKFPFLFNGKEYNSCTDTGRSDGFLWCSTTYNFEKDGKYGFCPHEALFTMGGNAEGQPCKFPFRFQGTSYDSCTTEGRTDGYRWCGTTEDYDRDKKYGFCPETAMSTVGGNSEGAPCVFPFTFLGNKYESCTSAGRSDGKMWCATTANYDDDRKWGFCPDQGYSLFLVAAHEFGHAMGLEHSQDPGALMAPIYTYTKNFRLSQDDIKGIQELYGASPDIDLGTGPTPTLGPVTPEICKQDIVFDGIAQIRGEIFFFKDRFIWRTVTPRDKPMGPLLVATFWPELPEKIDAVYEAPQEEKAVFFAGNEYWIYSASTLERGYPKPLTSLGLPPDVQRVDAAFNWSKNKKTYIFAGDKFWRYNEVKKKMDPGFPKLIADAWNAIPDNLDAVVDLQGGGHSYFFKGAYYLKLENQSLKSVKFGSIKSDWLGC
Neutrophil collagenase, sequence (P22894 whole entry): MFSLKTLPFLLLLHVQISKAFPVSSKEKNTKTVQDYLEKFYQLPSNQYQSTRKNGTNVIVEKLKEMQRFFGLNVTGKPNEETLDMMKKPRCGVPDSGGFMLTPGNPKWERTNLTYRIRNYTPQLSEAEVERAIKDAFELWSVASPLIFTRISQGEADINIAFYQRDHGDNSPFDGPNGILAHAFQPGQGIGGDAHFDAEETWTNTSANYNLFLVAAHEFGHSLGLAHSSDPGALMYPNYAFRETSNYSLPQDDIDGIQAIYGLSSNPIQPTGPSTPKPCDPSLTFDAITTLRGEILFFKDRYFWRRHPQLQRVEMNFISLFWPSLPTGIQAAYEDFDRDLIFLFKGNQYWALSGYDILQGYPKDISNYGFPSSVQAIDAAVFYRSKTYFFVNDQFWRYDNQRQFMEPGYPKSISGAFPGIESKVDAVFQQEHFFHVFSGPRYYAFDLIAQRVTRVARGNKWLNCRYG
Matrix metalloproteinase-9, sequence (P14780 whole entry): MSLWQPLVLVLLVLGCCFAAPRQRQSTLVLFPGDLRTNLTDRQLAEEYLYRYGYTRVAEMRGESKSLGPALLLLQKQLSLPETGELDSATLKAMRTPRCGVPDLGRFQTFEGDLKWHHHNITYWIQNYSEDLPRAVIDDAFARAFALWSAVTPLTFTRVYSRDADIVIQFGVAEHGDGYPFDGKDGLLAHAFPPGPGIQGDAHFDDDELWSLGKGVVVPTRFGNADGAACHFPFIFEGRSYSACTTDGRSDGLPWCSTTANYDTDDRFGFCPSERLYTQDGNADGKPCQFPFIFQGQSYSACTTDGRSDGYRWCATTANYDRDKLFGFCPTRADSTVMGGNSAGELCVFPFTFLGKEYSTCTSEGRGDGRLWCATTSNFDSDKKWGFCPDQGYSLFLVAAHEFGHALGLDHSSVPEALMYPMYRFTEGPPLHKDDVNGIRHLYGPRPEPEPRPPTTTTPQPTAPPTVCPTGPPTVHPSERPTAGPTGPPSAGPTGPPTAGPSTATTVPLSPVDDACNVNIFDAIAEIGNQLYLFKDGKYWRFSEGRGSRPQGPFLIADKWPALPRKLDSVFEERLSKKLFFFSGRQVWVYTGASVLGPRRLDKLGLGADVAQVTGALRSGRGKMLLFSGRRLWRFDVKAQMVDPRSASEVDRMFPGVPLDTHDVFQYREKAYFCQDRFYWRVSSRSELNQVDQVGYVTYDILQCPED

Structure (SMILES): CC[N+]1=C(/C=C/C=C/C=C2/N(CCCCCC(=O)NCCCOCCOCCOCCCNC(=O)[C@H](CCC(=O)O)NC(=O)[C@H](C)NC(=O)[C@H](Cc3cc(-c4ccc(-c5cccc(Cl)c5)cc4)no3)CP(=O)(O)c3ccc(Br)cc3)c3ccc4c(S(=O)(=O)O)cc(S(=O)(=O)O)cc4c3C2(C)C)C(C)(C)c2c1ccc1c(S(=O)(=O)[O-])cc(S(=O)(=O)O)cc21
- Ki [1]: 0.9 nM

Structure (SMILES): C[C@H](NC(=O)[C@H](Cc1cc(-c2ccc(-c3cccc(Cl)c3)cc2)no1)CP(=O)(O)c1ccc(Br)cc1)C(=O)N[C@@H](CCC(=O)O)C(N)=O
- Ki [1]: 0.26 nM

Structure (SMILES): CC(=O)N[C@H](CCP(=O)(O)CC(CCC[C@@H](N)C(=O)O)C(=O)O)C(=O)O (stereo not given in full)
- Ki [2]: 1500 nM

Structure (SMILES): NC(CCc1ccccc1)P(=O)(O)CC(Cc1ccccc1)C(=O)O (stereo not given)
- Ki [3]: 302 nM
- Ki (Leucine aminopeptidase): 13 nM

Structure (SMILES): C[C@H](NC(=O)C1(CP(=O)(O)[C@H](C)N)CCCC1)C(=O)O
- Ki [4]: 4.6 nM

Structure (SMILES): CC(=O)N1CCC(CP(=O)(O)[C@H](C)N)(C(=O)N[C@@H](C)C(=O)O)CC1
- Ki [4]: 5.3 nM

Structure (SMILES): [3H]CC([3H])C(=O)NCCCOCCOCCOCCCNC(=O)[C@H](CO)NC(=O)[C@H](CC)NC(=O)[C@H](Cc1cc(-c2ccc(C3(C(F)(F)F)N=N3)cc2)no1)CP(=O)(O)c1ccccc1 (stereo not given in full)
- Ki (Neutrophil collagenase): 0.6 nM
- Ki [5]: 2.6 nM
- Ki [6]: 0.5 nM
- Ki (Collagenase 3): 1.6 nM
- Ki [7]: 1 nM

Structure (SMILES): NC(CCc1ccccc1)P(=O)(O)CC(Cc1ccc(O)cc1)C(=O)O (stereo not given)
- Ki [8]: 232 nM
- Ki [3]: 54 nM
- Ki (Leucine aminopeptidase): 10 nM
